This is an account of results in US11090307B2, “Treating male senescence” (National Institute of Biological Sciences, Beijing, priority 2017, dated 2021).

Molecules are shown by their SMILES.

The subject of experiment [1] is 13-month old male wild type mice. Nature of the experiment: Long-term feeding of 13-month old male wild type mice with RIPA-56 chow for two months. In kind it is in vivo. As to the method:
We subsequently chose the 300 mg/kg dose to continuously feed 13-month old male wild type mice for two months to study the long-term effects of blocking necroptosis on testes. […] Additionally, the testosterone level of RIPA-56-treated mice remained high, while that of control mice decreased. […] Finally, the fertility rates of the RIPA-56-treated mice were much higher than those of control mice with 19 out of 25 mice on the RIPA-56 diet were fertile while only 6 out of 23 mice on normal diet produced progeny.

Experiment [2] relates to phospho-MLKL in the testes. Kind of experiment: TSZ-induced necroptosis in testes of mice fed RIPA-56-containing chow. Type of experiment: in vivo. As to the method:
We therefore evaluated the effects of a newly-identified, highly-potent, and highly-specific RIP1 kinase inhibitor from our laboratory (henceforth ‘RIPA-56’)(Ren et al., 2017) by incorporating it into mouse food at 150 mg/kg and 300 mg/kg doses. We first tested the effect of RIPA-56 on necroptosis in testes by injecting TSZ into testes of 2-month old mice after feeding the mice with increasing concentrations of RIPA-56-containing chow for one week.

For the compound `CCC(C)(C)C(=O)N(O)Cc1ccccc1` [RIPA-56], in experiment [1] (300 mg/kg in food, two months), the empty seminiferous tubules result is listed as “hardly any seminiferous vesicles were empty”; the “fertility rate (fertile mice)” value is on record as 19 out of 25; the “gross male aging metrics (body weight, fat deposition, libido, fertility, muscle mass, prostate hyperplasia)” value was “more youthful gross male aging metrics”; the “mass of seminal vesicles” value is reported as “around 1,000 milligrams”. In experiment [1] (300 mg/kg in food, two months), the testosterone level entry is on record as “remained high”. Further, the body weight result in experiment [1] (300 mg/kg in food, two months, vs control chow diet) is “weighed less than mice fed with control chow diet”. In experiment [1] (necroptosis blocked pharmaceutically), the age-associated weight gain entry is reported as “much less age-associated wright gain”. Besides, in experiment [2] (300 mg/kg dose in chow, one week, TSZ into testes), the “block of necroptosis in testes” value was “completely block necroptosis”. In addition, the “appearance of TSZ-induced phospho-MLKL in the testes” value in experiment [2] (2-month old mice, chow with increasing concentrations (150 mg/kg and 300 mg/kg) for one week, then TSZ into testes) is “blocked the appearance of TSZ-induced phospho-MLKL in the testes in a dose-dependent manner”.
